Data published in patent US20240042019A1, “OPTIMIZED TLR7 LIGANDS AND USES THEREOF” (Genentech, Inc., priority 2021, published 2024).

What was measured:
[1] = biological target: T1, TLR7 (Homo sapiens, UniProt Q9NYK1); experiment: PBMC stimulation with p-L-arginine-complexed RNA ligands, IFN-α ELISA; format: cell-based
T1 construct: Peripheral blood mononuclear cells (PBMCs) were obtained from buffy coats from healthy adult donors; endogenous in cells; host or cells: primary human PBMCs from healthy donor buffy coats (TLR7 expressed by pDCs)
T1 sequence (Q9NYK1 27-1049): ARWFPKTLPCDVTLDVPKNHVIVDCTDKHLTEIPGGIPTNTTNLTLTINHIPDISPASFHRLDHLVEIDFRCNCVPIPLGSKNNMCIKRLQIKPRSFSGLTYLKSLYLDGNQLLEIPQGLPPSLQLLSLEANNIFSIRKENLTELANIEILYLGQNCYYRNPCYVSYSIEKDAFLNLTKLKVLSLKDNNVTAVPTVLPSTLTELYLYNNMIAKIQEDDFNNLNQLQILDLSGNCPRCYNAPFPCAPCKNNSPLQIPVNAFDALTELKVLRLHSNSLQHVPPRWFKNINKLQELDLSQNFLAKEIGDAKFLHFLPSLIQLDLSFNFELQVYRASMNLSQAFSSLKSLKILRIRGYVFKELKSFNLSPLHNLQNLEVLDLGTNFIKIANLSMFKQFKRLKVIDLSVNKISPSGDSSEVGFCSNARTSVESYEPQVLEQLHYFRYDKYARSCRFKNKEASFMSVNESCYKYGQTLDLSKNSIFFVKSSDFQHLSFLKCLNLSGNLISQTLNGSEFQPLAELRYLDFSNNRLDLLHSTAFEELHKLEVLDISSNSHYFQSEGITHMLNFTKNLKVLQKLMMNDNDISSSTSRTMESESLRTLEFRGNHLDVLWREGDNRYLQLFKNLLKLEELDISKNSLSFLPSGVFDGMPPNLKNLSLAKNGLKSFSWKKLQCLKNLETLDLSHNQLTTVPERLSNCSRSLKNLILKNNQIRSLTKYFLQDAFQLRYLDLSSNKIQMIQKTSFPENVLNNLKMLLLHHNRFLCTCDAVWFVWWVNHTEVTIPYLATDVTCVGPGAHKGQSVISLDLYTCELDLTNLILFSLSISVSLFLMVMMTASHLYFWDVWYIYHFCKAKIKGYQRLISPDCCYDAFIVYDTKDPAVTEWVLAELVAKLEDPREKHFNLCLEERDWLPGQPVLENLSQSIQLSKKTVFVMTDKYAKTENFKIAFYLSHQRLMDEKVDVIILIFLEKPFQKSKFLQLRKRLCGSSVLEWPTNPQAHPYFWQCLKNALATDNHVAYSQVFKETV
Method: Peripheral blood mononuclear cells (PBMCs) were obtained from buffy coats from healthy adult donors. Buffy coat samples were first diluted with an equal volume of phosphate-buffered saline (PBS). Next, PBMCs were isolated via density gradient centrifugation with Lymphoprep density gradient media ([…] Technologies) and SepMate-50 tubes ([…] Technologies). Samples were centrifuged at 1000 g for 15 minutes. After centrifugation, the upper layers were collected by pouring into a new tube, diluted with PBS, and centrifuged at 450×g for 5 minutes. To lyse red blood cells, cell pellets were resuspended with 10 mL Ammonium-Chloride-Potassium (ACK) Lysis Buffer and incubated for 8 minutes at room temperature. After lysis, cells were washed with PBS and passed through two 70 μm cell strainers. Viable cell counts were determined with a Vi-CELL cell counter (Beckman Coulter). […] Guanosine was added between about 20 and about 30 minutes before the addition of poly-[…])-complexed RNA. […] After mixing by pipetting up and down, the reaction was incubated for 10 minutes, pipetted up and down again, and then added to the cells. In some experiments, RNA ligands were used at a final concentration of 0.6 μg/ml. Where indicated as “+2'3' cGMP”, 2'3' cyclic GMP purchased from eMolecules was complexed together with the RNA ligands. The final concentration of 2'3' cyclic GMP was 5 μg/ml. p-L-arginine was adjusted accordingly to keep the mass ratio of nucleic acid:p-L-arginine constant. Cell culture supernatants were collected 15-18 hours after stimulation and stored at -80° C. Cytokines in cell culture supernatants were detected with the BD OptEIA human TNF ELISA Set (BD Biosciences), and either Invitrogen IFN alpha Human Matched Antibody Pair kit (Thermo Fisher Scientific) or Human IFN Alpha Multi-Subtype ELISA Kit (PBL Assay Science). To test the effects of the RNA ligands described in Example 1 on TLR7 and TLR8 activation, PBMCs were stimulated with the RNA ligands using p-L-arginine complex delivery, delivery with DOTAP, or delivery without a carrier. Activity of TLR7 and TLR8 was assessed based on measurements of IFN-α or TNF-α by enzyme-linked immunosorbent assays (ELISA). In this setting, as depicted in FIG. 6, IFN-α induced by small RNAs is derived from TLR7 expressed by pDCs, or from RIG-I expressed by monocytes. In contrast, TNF-α secretion is derived from monocytes and serves as an indication of TLR8 activation. As shown in this figure, the p-L-arginine delivery restricts most of the activation to TLRs. First, the effects of the RNA ligands on TLR7 and TLR8 activation using p-L-arginine complex delivery were tested.

[2] = biological target: T2, TLR8 (Homo sapiens, UniProt Q9NR97); experiment: PBMC stimulation with DOTAP-complexed RNA ligands, TNF-α ELISA; format: cell-based
T2 construct: Peripheral blood mononuclear cells (PBMCs) were obtained from buffy coats from healthy adult donors; endogenous in cells; host or cells: primary human PBMCs from healthy donor buffy coats (TLR8 in monocytes)
T2 sequence (Q9NR97 27-1041): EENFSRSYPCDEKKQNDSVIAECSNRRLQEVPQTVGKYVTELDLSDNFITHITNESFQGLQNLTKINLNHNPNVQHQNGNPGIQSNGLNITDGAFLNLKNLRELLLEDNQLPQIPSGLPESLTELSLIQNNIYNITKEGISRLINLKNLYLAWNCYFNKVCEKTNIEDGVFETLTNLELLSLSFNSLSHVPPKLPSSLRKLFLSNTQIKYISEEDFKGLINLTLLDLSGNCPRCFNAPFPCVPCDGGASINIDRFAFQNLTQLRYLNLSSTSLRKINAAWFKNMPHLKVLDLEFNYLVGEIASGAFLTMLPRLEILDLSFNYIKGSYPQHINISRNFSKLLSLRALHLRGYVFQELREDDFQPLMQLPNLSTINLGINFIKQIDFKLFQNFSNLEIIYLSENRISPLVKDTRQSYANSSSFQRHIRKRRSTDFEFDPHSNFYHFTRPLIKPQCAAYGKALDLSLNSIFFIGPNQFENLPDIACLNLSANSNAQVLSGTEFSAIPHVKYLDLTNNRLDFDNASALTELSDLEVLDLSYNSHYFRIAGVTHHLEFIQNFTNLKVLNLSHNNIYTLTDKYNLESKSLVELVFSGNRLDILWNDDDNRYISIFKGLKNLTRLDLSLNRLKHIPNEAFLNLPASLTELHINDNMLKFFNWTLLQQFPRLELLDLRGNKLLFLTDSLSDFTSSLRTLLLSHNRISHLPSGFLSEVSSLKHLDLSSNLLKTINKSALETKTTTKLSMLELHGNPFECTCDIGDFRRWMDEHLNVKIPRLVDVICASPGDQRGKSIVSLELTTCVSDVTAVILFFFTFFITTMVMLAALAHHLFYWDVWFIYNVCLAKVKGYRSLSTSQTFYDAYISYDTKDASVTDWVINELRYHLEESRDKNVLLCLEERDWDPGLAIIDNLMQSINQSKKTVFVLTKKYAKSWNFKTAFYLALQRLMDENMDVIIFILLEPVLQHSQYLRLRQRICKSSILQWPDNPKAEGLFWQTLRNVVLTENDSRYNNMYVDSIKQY

[3] = biological target: recombinant RNase T2 (Homo sapiens, UniProt O00584)
Chain of recombinant RNase T2 (O00584 25-256, species assumed): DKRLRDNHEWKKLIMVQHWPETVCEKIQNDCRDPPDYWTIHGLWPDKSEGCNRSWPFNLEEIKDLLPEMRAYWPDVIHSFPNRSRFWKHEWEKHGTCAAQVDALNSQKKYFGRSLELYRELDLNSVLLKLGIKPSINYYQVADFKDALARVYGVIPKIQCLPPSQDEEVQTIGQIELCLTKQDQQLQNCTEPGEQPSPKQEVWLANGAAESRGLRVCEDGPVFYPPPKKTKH

[4] = biological target: T1, TLR7; experiment: PBMC stimulation with DOTAP-complexed RNA ligands, IFN-α ELISA; format: cell-based

CCUUCUUCUUCUUCUUCUUC (CCUUCUUCUUCUUCUUCUUC; all phosphodiester, sugars by position not given here) [ORN7009, reference compound]
IFN-α secretion (TLR7 activity) [1]: no or only minor IFN-α secretion
TNF-α secretion (TLR8 activity) [2]: activated TLR8
Degradation of full RNA ligand by RNase T2 [3]: degraded more quickly
IFN-α secretion (TLR7 activity) [4]: activated TLR8 rather than TLR7
